# Laboratory results from US20220370416A1, “COMPOUNDS AND METHODS FOR TARGETED DEGRADATION OF KRAS” (Arvinas Operations, Inc., priority 2020, published 2022).
# Legend:
# HiBit-KRAS^G12C [1] = biological target: T1, HiBit-KRAS^G12C (Homo sapiens, UniProt P01116, G12C); experiment: HiBit degradation assay in MiaPaCa-2 HiBit-KRas^G12C cells; assay type: cell-based; details: 24 hours; for Dmax: MIA PaCa-2, MiaPaCa-2 HiBit-KRas^G12C cells
# In short: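 MiaPaCa-2 cells with CRISPR N-terminal HiBit knock-in on one endogenous KRAS^G12C allele, treated 24 hours at 37° C with compound titrated 10 μM to 20 nM (0.1% or 0.5% DMSO). Lytic HiBit luminescence normalized to DMSO, 4-parameter fit giving DC50 and Dmax; points cytotoxic to […] cells by alamar blue excluded.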
# HiBit-KRAS^G12C [2] = biological target: T1, HiBit-KRAS^G12C; experiment: HiBit degradation assay in SW1573 HiBit-KRas^G12C cells; assay type: cell-based; design: expressed in transfected cells; host or cells: SW1573 (clone E6), modified pcDNA3.1 vector, TK promoter; details: 24 hours
# In short: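 SW1573 cells stably expressing N-terminally HiBit-tagged KRAS G12C, under the TK promoter, were treated 24 h at 37 °C with 10 μM to 20 nM compound in 0.1% or 0.5% DMSO. Residual HiBit luminescence normalised to DMSO and fitted with a 4-parameter model for DC50 and Dmax. Points with ≥50% viability loss (alamar blue) excluded.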
# [3] = 0.1% DMSO, maximum degradation, read-out: KRas^G12C-HiBiT (MiaPaCa; 0.1% DMSO) DMax
# [4] = SW1573, SW1573 HiBit-KRas^G12C, 0.1% DMSO, read-out: KRas^G12C-HiBit (SW1573; 0.1% DMSO) Dmax**
# [5] = SW1573 HiBit-KRas^G12C, 0.1% DMSO, read-out: KRas^G12C-HIBit (SW1573; 0.1% DMSO) DC50*
# [6] = read-out: KRas^G12C-HiBiT (MiaPaCa; 0.5% DMSO) IC50, MiaPaCa-2 HiBit-KRas^G12C cells, 0.5% DMSO
# [7] = read-out: KRas^G12C-HiBiT (SW1573; 0.5% DMSO) IC50***, SW1573 HiBit-KRas^G12C, 0.5% DMSO
# [8] = 0.5% DMSO, maximum degradation, read-out: KRas^G12C-HiBiT (MiaPaCa; 0.5% DMSO) DMax
# [9] = SW1573, SW1573 HiBit-KRas^G12C, 0.5% DMSO, read-out: KRas^G12C-HiBiT (SW1573; 0.5% DMSO) Dmax**
# [10] = read-out: KRas^G12C-HiBiT (MiaPaCa; 0.1% DMSO) IC50, MiaPaCa-2 HiBit-KRas^G12C cells, 0.1% DMSO
# T1 sequence (P01116 1-186 isoform P01116-2 G12C limits assumed): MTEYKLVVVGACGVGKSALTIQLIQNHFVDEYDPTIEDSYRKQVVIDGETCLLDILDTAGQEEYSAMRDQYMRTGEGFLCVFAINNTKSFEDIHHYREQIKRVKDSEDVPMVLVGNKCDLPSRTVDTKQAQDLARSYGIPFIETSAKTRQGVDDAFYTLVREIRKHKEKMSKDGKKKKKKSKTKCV
Compound,Dmax (HiBit-KRAS^G12C [1]; [3]) [%],Dmax (HiBit-KRAS^G12C [2]; [4]) [%],DC50 (HiBit-KRAS^G12C [2]; [5]) [µM],DC50 (HiBit-KRAS^G12C [1]; [6]) [µM],DC50 (HiBit-KRAS^G12C [2]; [7]) [µM],further results
"C=CC(=O)N1CCN(c2nc(OCCCN3CCC(OCC(=O)N[C@H](C(=O)N4C[C@H](O)C[C@H]4C(=O)N[C@@H](C)c4ccc(-c5scnc5C)cc4)C(C)(C)C)CC3)nc3c(F)c(-c4cc(O)cc5ccccc45)c(Cl)cc23)CC1 [Compound 25, (2S,4R)-1-[(2S)-2-(2-{[1-(3-{[6-chloro-8-fluoro-7-(3-hydroxynaphthalen-1-yl)-4-[4-(prop-2-enoyl)piperazin-1-yl]quinazolin-2-yl]oxy}propyl)piperidin-4-yl]oxy}acetamido)-3,3-dimethylbutanoyl]-4-hydroxy-N-[(1S)-1-[4-(4-methyl-1,3-thiazol-5-yl)phenyl]ethyl]pyrrolidine-2-carboxamide]",< 35,35 to 70,0.1 to 1,–,–,–
"C=C(F)C(=O)N1CCN(c2nc(OCCN3CCC(COc4cc([C@@H](C(=O)N5C[C@H](O)C[C@H]5C(=O)N[C@@H](C)c5ccc(-c6ccnn6C)cc5)C(C)C)on4)CC3)nc3c(F)c(-c4cc(O)cc5ccccc45)c(Cl)cc23)C[C@@H]1CC#N [Compound 158, (2S,4R)-1-[(2S)-2-[3-({1-[2-({6-chloro-4-[(3S)-3-(cyanomethyl)-4-(2-fluoroprop-2-enoyl)piperazin-1-yl]-8-fluoro-7-(3-hydroxynaphthalen-1-yl)quinazolin-2-yl}oxy)ethyl]piperidin-4-yl}methoxy)-1,2-oxazol-5-yl]-3-methylbutanoyl]-4-hydroxy-N-[(1S)-1-[4-(1-methyl-1H-pyrazol-5-yl)phenyl]ethyl]pyrrolidine-2-carboxamide]",–,–,–,> 1,> 1,–
"C=CC(=O)N1CCN(c2nc(OCCN3CCC(COc4cc([C@H](C(=O)N5C[C@H](O)C[C@H]5C(=O)N[C@@H](C)c5ccc(-c6scnc6C)cc5)C(C)C)on4)CC3)nc3c(F)c(-c4cc(O)cc5ccccc45)c(Cl)cc23)C[C@@H]1CC#N [Compound 169, (2S,4R)-1-[(2R)-2-[3-({1-[2-({6-chloro-4-[(3S)-3-(cyanomethyl)-4-(prop-2-enoyl)piperazin-1-yl]-8-fluoro-7-(3-hydroxynaphthalen-1-yl)quinazolin-2-yl}oxy)ethyl]piperidin-4-yl}methoxy)-1,2-oxazol-5-yl]-3-methylbutanoyl]-4-hydroxy-N-[(1S)-1-[4-(4-methyl-1,3-thiazol-5-yl)phenyl]ethyl]pyrrolidine-2-carboxamide]",–,–,–,0.1 to 1,< 0.1,"KRas^G12C-HiBiT (MiaPaCa; 0.5% DMSO) DMax (HiBit-KRAS^G12C [1]; MiaPaCa-2 HiBit-KRas^G12C cells, 0.5% DMSO, maximum degradation): A (A ≥ 70); KRas^G12C-HiBiT (SW1573; 0.5% DMSO) Dmax** (HiBit-KRAS^G12C [2]; SW1573 HiBit-KRas^G12C, 0.5% DMSO): A (A ≥ 70)"
"C=CC(=O)N1CCN(c2nc(O[C@H](C)CN3CCC(OCCOc4cc(-c5scnc5C)ccc4CNC(=O)[C@@H]4C[C@@H](O)CN4C(=O)[C@H](c4cc(C)no4)C(C)C)CC3)nc3c(F)c(-c4cc(O)cc5ccccc45)c(Cl)cc23)CC1 [Compound 77, (2S,4R)-N-({2-[2-({1-[(2R)-2-{[6-chloro-8-fluoro-7-(3-hydroxynaphthalen-1-yl)-4-[4-(prop-2-enoyl)piperazin-1-yl]quinazolin-2-yl]oxy}propyl]piperidin-4-yl}oxy)ethoxy]-4-(4-methyl-1,3-thiazol-5-yl)phenyl}methyl)-4-hydroxy-1-[(2S)-3-methyl-2-(3-methyl-1,2-oxazol-5-yl)butanoyl]pyrrolidine-2-carboxamide]",< 35,< 35,0.1 to 1,–,–,–
"C=C(F)C(=O)N1CCN(c2nc(OCCN3CCC(C)(COc4cc([C@H](C(=O)N5C[C@H](O)C[C@H]5C(=O)N[C@@H](C)c5ccc(-c6ccnn6C)cc5)C(C)C)on4)CC3)nc3c(F)c(-c4cc(O)cc5ccccc45)c(Cl)cc23)C[C@@H]1CC#N (atropisomer, axis not shown) [Compound 124, (2S,4R)-1-[(2R)-2-[3-({1-[2-({6-chloro-4-[(3S)-3-(cyanomethyl)-4-(2-fluoroprop-2-enoyl)piperazin-1-yl]-8-fluoro-7-(3-hydroxynaphthalen-1-yl)quinazolin-2-yl}oxy)ethyl]-4-methylpiperidin-4-yl}methoxy)-1,2-oxazol-5-yl]-3-methylbutanoyl]-4-hydroxy-N-[(1S)-1-[4-(1-methyl-1H-pyrazol-5-yl)phenyl]ethyl]pyrrolidine-2-carboxamide]",–,–,–,< 0.1,< 0.1,Dmax (HiBit-KRAS^G12C [1]; [8]): 35 to 70%; Dmax (HiBit-KRAS^G12C [2]; [9]): 35 to 70%
"C=CC(=O)N1CCN(c2nc(O[C@@H](C)CN3CCC(OCCOCC(=O)N[C@H](C(=O)N4C[C@H](O)C[C@H]4C(=O)N[C@@H](C)c4ccc(-c5scnc5C)cc4)C(C)(C)C)CC3)nc3c(F)c(-c4cc(O)cc5ccccc45)c(Cl)cc23)CC1 [Compound 67, (2S,4R)-1-[(2S)-2-{2-[2-({1-[(2S)-2-{[6-chloro-8-fluoro-7-(3-hydroxynaphthalen-1-yl)-4-[4-(prop-2-enoyl)piperazin-1-yl]quinazolin-2-yl]oxy}propyl]piperidin-4-yl}oxy)ethoxy]acetamido}-3,3-dimethylbutanoyl]-4-hydroxy-N-[(1S)-1-[4-(4-methyl-1,3-thiazol-5-yl)phenyl]ethyl]pyrrolidine-2-carboxamide]",35 to 70,35 to 70,0.1 to 1,–,–,Dmax (HiBit-KRAS^G12C [1]; [8]): 35 to 70%; Dmax (HiBit-KRAS^G12C [2]; [9]): 35 to 70%
"C=CC(=O)N1CCN(c2nc(O[C@H](C)CN3CC(OCC(=O)N[C@H](C(=O)N4C[C@H](O)C[C@H]4C(=O)N[C@@H](C)c4ccc(-c5scnc5C)cc4)C(C)(C)C)C3)nc3c(F)c(-c4cc(O)cc5ccccc45)c(Cl)cc23)CC1 [Compound 41, (2S,4R)-1-[(2S)-2-[2-({1-[(2R)-2-{[6-chloro-8-fluoro-7-(3-hydroxynaphthalen-1-yl)-4-[4-(prop-2-enoyl)piperazin-1-yl]quinazolin-2-yl]oxy}propyl]azetidin-3-yl}oxy)acetamido]-3,3-dimethylbutanoyl]-4-hydroxy-N-[(1S)-1-[4-(4-methyl-1,3-thiazol-5-yl)phenyl]ethyl]pyrrolidine-2-carboxamide]",< 35,35 to 70,> 1,–,–,DC50 (HiBit-KRAS^G12C [1]; [10]): 0.1 to 1 µM
"C=CC(=O)N1CCN(c2nc(O[C@H](C)CN3CCN(CCCOC4CN(CC(=O)N[C@H](C(=O)N5C[C@H](O)C[C@H]5C(=O)N[C@@H](C)c5ccc(-c6scnc6C)cc5)C(C)(C)C)C4)CC3)nc3c(F)c(-c4cc(O)cc5ccccc45)c(Cl)cc23)CC1 [Compound 57, (2S,4R)-1-[(2S)-2-{2-[3-(3-{4-[(2R)-2-{[6-chloro-8-fluoro-7-(3-hydroxynaphthalen-1-yl)-4-[4-(prop-2-enoyl)piperazin-1-yl]quinazolin-2-yl]oxy}propyl]piperazin-1-yl}propoxy)azetidin-1-yl]acetamido}-3,3-dimethylbutanoyl]-4-hydroxy-N-[(1S)-1-[4-(4-methyl-1,3-thiazol-5-yl)phenyl]ethyl]pyrrolidine-2-carboxamide]",–,–,0.1 to 1,–,–,"DC50 (HiBit-KRAS^G12C [1]; [10]): > 1 µM; Dmax (HiBit-KRAS^G12C [2]; SW1573, read-out: KRas^G12C-HiBit (SW1573; 0.1% DMSO) Dmax**, SW1573 HiBit-KRas^G12C, 0.1% DMSO): < 35%"
